How the values were obtained:
[1] = test system: Colo205 cell; test: Proliferation inhibition on Colo205 (CCK8); assay type: cell-based; conditions: Homo sapiens, COLO 205, Colo205, 72 hours
Description: Cell line used in the assay: Colo205 (Cell Bank of the Chinese Academy of Sciences, Catalog No. TCHu102).
The following in vitro cell assay is to determine the activity of the compounds of the present invention for inhibiting the proliferation of human colon cancer cell, and the activity is expressed as IC50. General programs of this kind of assay were as follows: First, the cell line to be tested (purchased from Cell Bank of the Chinese Academy of Sciences) was inoculated in a 96-well culture plate with a suitable cell concentration of 4000 cells/mL medium, and was cultured in a carbon dioxide incubator at 37° C., then grown overnight. The medium was replaced by new medium added with a series of concentrations (10000 nM, 1000 nM, 100 nM, 10 nM, 1 nM, 0.1 nM) of the test compound solutions. The plates were placed back in the incubator, and continuously cultured for 72 hours. After 72 hours, CCK8 (Cell Counting Kit-8, Catalog No.: CK04, purchased from colleagues chemical company) method was used to determine the proliferation inhibition activity of the test compounds. IC50 values were calculated from the inhibition data of the test compounds at a series of different concentrations.
The above assay was used to determine the biochemical activity of the compounds of the present invention.

[2] = molecular target: T1, MEK1 (Recombinant Human Protein) (Homo sapiens, UniProt Q02750); test: MEK1 kinase inhibition assay (Z'-LYTE Kinase Assay Kit-Ser/Thr 03 Peptide); assay type: biochemical; conditions: 4 hours at 37° C, read-out: IC50 for inhibiting MEK kinase (MEK1)
T1 construct: purchased Invitrogen PV3093
Method: MEK1 kinase activity was tested in vitro by the following method.
MEK kinase used in the assay: MEK1 (Recombinant Human Protein, Invitrogen, Catalog No. PV3093).
Kit used in the assay: Z′-LYTE™ Kinase Assay Kit-Ser/Thr 03 Peptide (Invitrogen, Catalog No. PV3176).
The following in vitro assay was used to determine the activity of the compounds of the present invention for inhibiting the […] MEK kinase. The test compound was dissolved in dimethyl sulfoxide to the desired concentration. 1× Buffer A (Invitrogen, Catalog No. PV3189) was prepared, ATP was diluted with 1× Buffer A to obtain 400 μM ATP solution, appropriate amounts of Z′-LYTE™ Ser/Thr 03 Peptide (Invitrogen, Catalog No. PV3200), MEK kinase (MEK1) Enzymes and 1× Buffer A were mixed, and appropriate amounts of Z′-LYTE™ Ser/Thr 03 phosphoPeptide substrate (Invitrogen, Catalog No. PV3215) and 1× Buffer A were formulated into a mixture to be tested. The 4% DMSO solution of the test compound was prepared from 1× buffer and DMSO solution of the test compound. 2.5 μL DMSO solution of the test compound was added to a reaction well, and then 1× Buffer A, 2.5 μL of 400 μM ATP solution, 5 μL of enzyme and substrate mixture were added to become a 10 μL of reaction system. The reaction system was incubated for 4 hours at 37° C., and a mixture was prepared according to Reagent A:Buffer B=1:1024. 5 μL of a mixture of Reagent A (Invitrogen, Catalog No. PV3295) and Buffer B (Invitrogen, Catalog No. P3127) was added to a reaction well, the reaction system was incubated for 60 minutes at 25° C. The fluorescence was read by a NovoStar ELISA with excitation wavelength: 400 nm, and emission wavelength: 445 nm and 520 nm.
The activity of the compounds of the present invention: The above assay was used to determine the biochemical activity of the compounds of the present invention for inhibiting MEK kinase (MEK1).

[3] = molecular target: T2, CYP2C9 (Homo sapiens, UniProt P11712); test: In vitro CYP enzyme inhibition, human liver microsomes; assay type: in vitro ADME; conditions: probe Diclofenac, single point method
T2 construct: from tissue; host or cells: human liver microsomes
Method: (§1) Human liver microsome incubation system was used to reflect the activity of enzymes based on the amount of metabolites produced. Enzyme inhibition of the test compounds was investigated on CYP1A2, CYP2C9, […], CYP3A4m, CYP3A4t and CYP2C19, and IC50 values (a concentration of the test compound that is required for 50% inhibition of enzyme activity) were measured. […] The appropriate amount of test compound standard sample was weighed, and diluted with DMSO to 50 mM to obtain stock solution I. The stock solution I was diluted with PBS to 100 μM to obtain the reaction liquid which is to be used in incubation. [table] The reaction mixture was prepared: 60 μL [table] The above mixture was preincubated for 5 minutes at 37° C., followed by addition of 40 μL of NADPH (2.5 mM, PBS formulation). The mixture solution was incubated for 20 minutes at 37° C. All incubated samples were set to double samples. 300 μL ice-cold acetonitrile was added to terminate the reaction. The reaction solution was added with 100 μl internal standard, mixed uniformly, and centrifuged for 10 minutes at 3500 rpm. The supernatant was transferred to the LC-MS/MS analysis. The activity of enzymes was reflected by the production amount of metabolites. Using a single point method, the formula was calculated as follows: According to the known literature: IC50>10 μM belongs to weaker inhibition, 1 μM<IC50<10 μM belong to moderate inhibition, IC50<1 μM belong to strong inhibition.

[4] = molecular target: T3, CYP2C19 (Homo sapiens, UniProt P33261); test: as above; assay type: in vitro ADME; conditions: probe (S)-Mephenytoin, single point method
T3 construct: from tissue; host or cells: human liver microsomes
Method: as §1

[5] = molecular target: CYP2C6 (Homo sapiens, UniProt P10635); test: as above; assay type: in vitro ADME; conditions: single point method
Method: as §1

[6] = molecular target: T4, CYP1A2 (Homo sapiens, UniProt P05177); test: as above; assay type: in vitro ADME; conditions: probe Phenacetin, single point method
T4 construct: from tissue; host or cells: human liver microsomes
T4 sequence (P05177 1-516): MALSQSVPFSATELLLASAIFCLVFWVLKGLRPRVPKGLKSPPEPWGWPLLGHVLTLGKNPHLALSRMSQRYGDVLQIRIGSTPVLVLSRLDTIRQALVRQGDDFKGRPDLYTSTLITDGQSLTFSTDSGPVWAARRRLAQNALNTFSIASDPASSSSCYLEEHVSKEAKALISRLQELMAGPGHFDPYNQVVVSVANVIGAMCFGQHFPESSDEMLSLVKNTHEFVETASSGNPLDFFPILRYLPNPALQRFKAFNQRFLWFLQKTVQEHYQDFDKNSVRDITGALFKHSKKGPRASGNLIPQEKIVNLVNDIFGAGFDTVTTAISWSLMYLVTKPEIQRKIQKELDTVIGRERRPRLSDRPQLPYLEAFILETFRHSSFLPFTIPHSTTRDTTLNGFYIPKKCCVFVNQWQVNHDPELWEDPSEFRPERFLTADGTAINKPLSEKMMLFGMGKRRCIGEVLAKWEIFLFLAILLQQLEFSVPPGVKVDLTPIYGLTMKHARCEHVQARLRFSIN
Method: as §1

[7] = molecular target: T5, CYP3A4m (Homo sapiens, UniProt P08684); test: as above; assay type: in vitro ADME; conditions: probe Midazolam, single point method
T5 construct: from tissue; host or cells: human liver microsomes
Method: as §1

[8] = molecular target: T6, CYP3A4t (Homo sapiens, UniProt P08684); test: as above; assay type: in vitro ADME; conditions: probe Testosterone, single point method
T6 construct: from tissue; host or cells: human liver microsomes
Method: as §1

T1 sequence (Q02750 whole entry): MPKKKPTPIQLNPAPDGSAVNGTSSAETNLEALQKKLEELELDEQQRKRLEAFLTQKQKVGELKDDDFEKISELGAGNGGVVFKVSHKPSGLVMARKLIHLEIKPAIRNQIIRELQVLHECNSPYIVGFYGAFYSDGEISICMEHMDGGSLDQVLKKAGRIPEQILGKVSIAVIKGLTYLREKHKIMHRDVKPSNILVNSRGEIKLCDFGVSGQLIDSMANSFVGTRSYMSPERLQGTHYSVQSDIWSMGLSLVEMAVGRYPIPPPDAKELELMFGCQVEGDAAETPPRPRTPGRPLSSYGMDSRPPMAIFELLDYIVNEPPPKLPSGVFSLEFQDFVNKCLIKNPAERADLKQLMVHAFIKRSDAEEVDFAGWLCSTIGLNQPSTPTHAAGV
T3 sequence (P33261 whole entry): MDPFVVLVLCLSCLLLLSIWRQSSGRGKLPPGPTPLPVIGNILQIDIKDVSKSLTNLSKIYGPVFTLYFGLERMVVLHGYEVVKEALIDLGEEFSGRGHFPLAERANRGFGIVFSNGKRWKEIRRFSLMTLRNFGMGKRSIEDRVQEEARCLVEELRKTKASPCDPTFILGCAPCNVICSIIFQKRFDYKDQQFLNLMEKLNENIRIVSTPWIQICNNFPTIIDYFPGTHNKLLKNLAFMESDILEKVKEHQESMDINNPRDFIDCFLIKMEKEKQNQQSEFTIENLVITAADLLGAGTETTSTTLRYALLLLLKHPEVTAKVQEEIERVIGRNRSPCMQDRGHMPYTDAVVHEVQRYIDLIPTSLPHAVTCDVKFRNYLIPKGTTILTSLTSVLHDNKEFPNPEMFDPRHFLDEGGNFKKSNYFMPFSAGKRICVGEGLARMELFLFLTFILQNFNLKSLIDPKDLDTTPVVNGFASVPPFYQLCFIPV
T5 sequence (P08684 whole entry): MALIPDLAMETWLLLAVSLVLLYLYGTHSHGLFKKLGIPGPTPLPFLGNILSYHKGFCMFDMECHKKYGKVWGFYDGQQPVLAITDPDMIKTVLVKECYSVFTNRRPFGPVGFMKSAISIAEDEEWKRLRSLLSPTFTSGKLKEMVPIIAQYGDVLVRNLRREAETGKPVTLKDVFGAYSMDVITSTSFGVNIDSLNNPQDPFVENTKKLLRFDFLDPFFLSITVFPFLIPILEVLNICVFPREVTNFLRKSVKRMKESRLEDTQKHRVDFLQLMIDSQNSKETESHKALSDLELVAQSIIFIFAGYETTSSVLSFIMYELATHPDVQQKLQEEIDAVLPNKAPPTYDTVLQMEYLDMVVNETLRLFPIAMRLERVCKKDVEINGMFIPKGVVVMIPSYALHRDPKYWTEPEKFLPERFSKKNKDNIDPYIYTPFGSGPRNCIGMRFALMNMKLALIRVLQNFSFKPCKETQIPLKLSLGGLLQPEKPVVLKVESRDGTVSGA
T6 sequence (P08684 whole entry): as above
T2 sequence (P11712 whole entry): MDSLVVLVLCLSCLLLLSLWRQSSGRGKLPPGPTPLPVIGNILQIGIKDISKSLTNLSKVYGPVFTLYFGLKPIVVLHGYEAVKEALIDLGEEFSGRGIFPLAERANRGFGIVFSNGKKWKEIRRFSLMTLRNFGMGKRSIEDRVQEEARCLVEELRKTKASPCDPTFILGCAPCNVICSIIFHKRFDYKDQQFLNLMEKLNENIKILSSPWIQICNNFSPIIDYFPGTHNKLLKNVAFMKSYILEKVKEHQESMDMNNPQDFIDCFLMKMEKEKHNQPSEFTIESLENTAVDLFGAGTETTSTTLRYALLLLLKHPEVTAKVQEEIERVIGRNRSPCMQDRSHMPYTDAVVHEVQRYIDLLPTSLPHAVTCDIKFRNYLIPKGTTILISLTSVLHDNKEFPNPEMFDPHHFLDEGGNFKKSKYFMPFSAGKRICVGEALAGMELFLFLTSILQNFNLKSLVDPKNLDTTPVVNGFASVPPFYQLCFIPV
Sequence of CYP2C6 (P10635 whole entry): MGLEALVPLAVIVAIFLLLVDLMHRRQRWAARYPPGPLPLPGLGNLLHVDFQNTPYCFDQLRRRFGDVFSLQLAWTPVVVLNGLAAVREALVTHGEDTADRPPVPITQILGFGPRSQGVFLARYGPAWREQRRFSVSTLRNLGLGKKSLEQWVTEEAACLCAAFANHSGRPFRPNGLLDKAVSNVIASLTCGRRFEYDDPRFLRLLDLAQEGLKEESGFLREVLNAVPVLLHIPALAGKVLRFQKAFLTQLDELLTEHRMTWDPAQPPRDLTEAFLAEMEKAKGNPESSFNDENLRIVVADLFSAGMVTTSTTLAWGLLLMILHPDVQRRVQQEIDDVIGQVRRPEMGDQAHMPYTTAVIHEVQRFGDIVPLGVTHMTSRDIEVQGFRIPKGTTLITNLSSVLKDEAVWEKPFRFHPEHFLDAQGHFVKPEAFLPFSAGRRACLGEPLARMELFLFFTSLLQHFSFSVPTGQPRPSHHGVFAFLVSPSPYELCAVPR

| IC50 [1] [nM] | IC50 [2] [nM] | IC50 [3] [nM] | IC50 [4] [nM] | IC50 [5] [nM] | IC50 [6] [nM] | IC50 [7] [nM] | IC50 [8] [nM] | Compound |
| --- | --- | --- | --- | --- | --- | --- | --- | --- |
| 0.8 | 4 | > 50000 | > 10000 | > 50000 | > 10000 | > 50000 | > 50000 | CC(=O)Nc1cccc(Oc2cc(=O)n(C)c(Nc3ccc(I)cc3F)c2C(N)=O)c1C [Example 4, 4-(3-acetamido-2-methylphenoxy)-2-((2-fluoro-4-iodophenyl)amino)-1-methyl-6-oxo-1,6-dihydropyridine-3-carboxamide] |
|  | 6 | > 10000 | > 10000 | > 10000 | > 10000 | > 10000 | > 10000 | Cc1cncc(Oc2cc(=O)n(C)c(Nc3ccc(I)cc3F)c2C(N)=O)c1 [Example 30, 2-((2-fluoro-4-iodophenyl)amino)-1-methyl-4-((5-methylpyridin-3-yl)oxy)-6-oxo-1,6-dihydropyridine-3-carboxamide] |
| 0.7 | 5.1 |  |  |  |  |  |  | Cc1c(Oc2cc(=O)n(C)c(Nc3ccc(I)cc3F)c2C(N)=O)cccc1O[C@@H]1CCOC1 [Example 12, (R)-2-((2-fluoro-4-iodophenyl)amino)-1-methyl-4-(2-methyl-3-((tetrahydrofuran-3-yl)oxy)phenoxy)-6-oxo-1,6-dihydropyridine-3-carboxamide] |
| 1 | 5.9 |  |  |  |  |  |  | Cc1ccc(F)cc1Oc1cc(=O)n(C)c(Nc2ccc(I)cc2F)c1C(N)=O [Example 25, 4-(5-fluoro-2-methylphenoxy)-2-((2-fluoro-4-iodophenyl)amino)-1-methyl-6-oxo-1,6-dihydropyridine-3-carboxamide] |
| 11.5 | 9.5 |  |  |  |  |  |  | COc1cccc(Oc2cc(=O)n(C)c(Nc3ccc(I)cc3F)c2C(N)=O)c1C [Example 16, 4-(3-methoxy-2-methylphenoxy)-2-((2-fluoro-4-iodophenyl)amino)-1-methyl-6-oxo-1,6-dihydropyridine-3-carboxamide] |
| 0.5 | 3.2 |  |  |  |  |  |  | CCC(=O)Nc1cccc(Oc2cc(=O)n(C)c(Nc3ccc(I)cc3F)c2C(N)=O)c1C [Example 8, 4-(3-propionamido-2-methylphenoxy)-2-((2-fluoro-4-iodophenyl)amino)-1-methyl-6-oxo-1,6-dihydropyridine-3-carboxamide] |

From patent publication US10064848B2, “Pyridic ketone derivatives, method of preparing same, and pharmaceutical application thereof” (Shanghai Hengrui Pharmaceutical Co., Ltd., priority 2013, dated 2018)
